Measurements: EP0491793B1, “2'-DEOXY-4'-THIORIBONUCLEOSIDES AS ANTIVIRAL AND ANTICANCER AGENTS” (Southern Research Institute, priority 1989, dated 1991)
≈ marks a conversion by molar mass, not a printed value. Like-named read-outs stand apart in the source and are kept apart here.

What was measured:
HSV-2 (MS) = assay: CPE-inhibition assay against HSV-2 in Vero cell monolayers; format: cell-based, herpes simplex virus, Type 2; settings: for EC50: read-out: MIC50; for VR: Virus Rating, VR 1.0 or greater significant, 0.5-0.9 marginal, less than 0.5 inactive
Procedure: (§1) 2'-Deoxy-4'-thioribonucleosides were tested for antiviral activity against viruses that replicate in mammalian cells growing in cell culture. The Virus Rating (VR) is a standard weighted measurement of antiviral activity which takes into account the degree of inhibition of virus-induced cytopathogenic effects (CPE) and the degree of cytotoxicity produced by the test compound, determined by a modification of the method of Ehrlich et al, Ann. N.Y. Acad. Sci. 130, 5-16 (1965) .
(§2) The CPE-inhibition assays were designed to test seven 0.5 log10 concentrations of each compound, beginning with 320 µg/mL, against HSV in triplicate 24-hour Vero cell monolayers in 96-well tissue culture plates. To each of the replicate cell cultures were dispensed 0.1 mL of the test compound solution (or suspension) and 0.1 mL of HSV suspension (diluted in medium to yield 32 CCID50 units per 0.1 mL). Cell controls, untreated virus-infected controls and drug cytotoxicity controls were included in each assay. […] The cell monolayers were examined microscopically for drug cytotoxicity and for CPE. which was graded on a scale of 0-4 (0-100% CPE).
(§3) The VR was calculated as 0.1 of the sum of the numerical differences between the recorded CPE grade of each test well and that of the corresponding virus control in the culture plate. Numerical differences between the scores of test wells containing a drug concentration which is partially cytotoxic and their corresponding virus controls were halved.
(§4) In tests carried out by this method, a greater value of VR indicates greater antiviral activity.
(§5) The MIC50 (minimum inhibitory concentration, 50%) is the concentration of a test compound required for 50% inhibition of virus-induced cytopathogenic effect calculated by using a regression analysis program for semilog curve fitting. MTC (minimum toxic concentration) is the minimum drug concentration (µg/ml) causing any cytotoxicity. TI is the therapeutic index, calculated by dividing the minimum cytotoxic drug concentration (MTC) by the minimum inhibitory concentration, 50% (MIC50). […]

HSV-1 (E377) = assay: CPE-inhibition assay against HSV-1 in Vero cell monolayers; format: cell-based, herpes simplex virus, Type 1; settings: for EC50: read-out: MIC50; for VR: Virus Rating, VR 1.0 or greater significant, 0.5-0.9 marginal, less than 0.5 inactive; for TI: therapeutic index, MTC divided by MIC50, HSV-1 (E377)
Procedure: as §1, §2, §3, §4, §5

Vero cell monolayers = assay: in vitro; format: cell-based; settings: monkey, vero cells
Procedure: (§6) The CPE-inhibition assays were designed to test seven 0.5 log10 concentrations of each compound, beginning with 320 µg/mL, against HSV in triplicate 24-hour Vero cell monolayers in 96-well tissue culture plates. […] Cell controls, untreated virus-infected controls and drug cytotoxicity controls were included in each assay. […] The cell monolayers were examined microscopically for drug cytotoxicity and for CPE. which was graded on a scale of 0-4 (0-100% CPE). The MIC50 (minimum inhibitory concentration, 50%) is the concentration of a test compound required for 50% inhibition of virus-induced cytopathogenic effect calculated by using a regression analysis program for semilog curve fitting. MTC (minimum toxic concentration) is the minimum drug concentration (µg/ml) causing any cytotoxicity. TI is the therapeutic index, calculated by dividing the minimum cytotoxic drug concentration (MTC) by the minimum inhibitory concentration, 50% (MIC50). […]

in vitro = format: cell-based; settings: monkey, vero cells
Procedure: as §6

[1] = system: either H.Ep.-2 or L1210 cells, or both; assay: Cytotoxicity tests, summary statements that do not fix the cell line; format: cell-based; settings: text statement on Table 2, cell line not fixed
Procedure: (§7) 2'-Deoxy-4'-thioribonucleosides were tested for antitumor activity against leukemia L1210 ("L1210") cells and human epidermoid carcinoma No. 2 ("H.Ep.-2") cells.
(§8) For L1210 cells the IC50 is the concentration required to decrease cellular proliferation by 50% as compared to untreated controls. The cells were grown in suspension cultures and the number of cells present was determined at 24 and 48 hours.
(§9) For H.Ep.-2 cells, the IC50 is the concentration required to reduce colony formation by 50% as compared to controls. One hundred cells in 10 mL of medium were placed in prescription bottles, and after 10 days incubation, the medium was decanted and the colonies were stained and counted.
(§10) In the cytotoxicity tests, the lower the IC50 value, the greater the antitumor activity. […]

[2] = system: leukemia L1210 ("L1210") cells; assay: Cytotoxicity test, cellular proliferation of L1210 cells in suspension culture; format: cell-based; settings: Mus musculus, concentration decreasing cellular proliferation by 50%, 48 hour values
Procedure: as §7, §8, §10

[3] = system: human epidermoid carcinoma No. 2 ("H.Ep.-2") cells; assay: Cytotoxicity test, colony formation of H.Ep.-2 cells; format: cell-based; settings: HEp-2, 240 h, concentration reducing colony formation by 50%, 10 days incubation
Procedure: as §7, §9, §10

[4] = Human alphaherpesvirus 1, 50% inhibition of virus-induced cytopathogenic effect, HSV-1 (E377), Vero cells, unit not given for MIC50 (MTC in µg/ml, TI = MTC/MIC50)

Nc1nc2c(ncn2COCCO)c(=O)[nH]1 [Acyclovir, reference compound] gave an EC50 (HSV-2 (MS); Human alphaherpesvirus 2, 50% inhibition of virus-induced cytopathogenic effect, HSV-2 (MS), Vero cells, unit not given for MIC50 (MTC in µg/ml, TI = MTC/MIC50)) of 3.6 µg/mL (≈ 16 µM), a VR (HSV-2 (MS); HSV-2 (MS), Vero cells) of 4.8 and an EC50 (HSV-1 (E377); [4]) of 0.5 µg/mL (≈ 2.22 µM). For the same compound, the VR (HSV-1 (E377); HSV-1 (E377), Vero cells) was 6.7, the TI (HSV-1 (E377)) was over 441 and the MIC (Vero cell monolayers) was >225.2 >225.2 µg/ml. For the same compound, the MCC (in vitro) was over 225 µg/mL.
Compound Nc1ncnc2c1ncn2[C@@H]1O[C@H](CO)[C@@H](O)[C@@H]1O [Ara-A, 9-β-D-arabinofuranosyladenine, reference compound] has an EC50 (HSV-2 (MS); Human alphaherpesvirus 2, Vero) of 39.3 µg/mL (≈ 147 µM), a VR (HSV-2 (MS); HSV-2 (MS), Vero cells) of 1.1 and a TI (HSV-2 (MS); therapeutic index, MTC divided by MIC50, HSV-2 (MS)) of 2.2. The EC50 (HSV-1 (E377); Human alphaherpesvirus 1, Vero) was 15.2 µg/mL (≈ 56.9 µM), the VR (HSV-1 (E377); HSV-1 (E377), Vero cells) was 1.8 and the TI (HSV-1 (E377)) was 5.6. For the same compound, the MCC (in vitro) was 84.8 µg/mL.
Cc1cn([C@H]2C[C@H](O)[C@@H](CO)S2)c(=O)[nH]c1=O [1-(2'-Deoxy-4'-thio-β-D-ribofuranosyl)thymine] showed an IC50 [1] of under 1 µg/mL, a VR (HSV-2 (MS); HSV-2 (MS), Vero cells) of 0.1 and an EC50 (HSV-1 (E377); [4]) of 0.8 µg/mL (≈ 3.1 µM). The VR (HSV-1 (E377); HSV-1 (E377), Vero cells) was 1.3, the TI (HSV-1 (E377)) was 3.2 - and the MCC (in vitro) was 2.6 µg/mL. The IC50 [2] was 0.025 µg/mL (≈ 0.0968 µM) and the IC50 [3] was 0.075 µg/mL (≈ 0.29 µM).
Compound Cc1cn([C@@H]2C[C@H](O)[C@@H](CO)S2)c(=O)[nH]c1=O [1-(2-Deoxy-4-thio-α-D-ribofuranosyl)-thymine] has a VR (HSV-2 (MS); HSV-2 (MS), Vero cells) of 0.3, an EC50 (HSV-1 (E377); [4]) of 100 µg/mL (≈ 388 µM) and a VR (HSV-1 (E377); HSV-1 (E377), Vero cells) of 1.4. For the same compound, the “antiviral activity against herpes simplex Type 1” value (HSV-1 (E377); statement in words on the tests of Table 1) was “definite antiviral activity”, the TI (HSV-1 (E377)) was 2.3 - and the MIC (Vero cell monolayers) was >257.2 >257.2 µg/ml. The MCC (in vitro) was over 257 µg/mL, the IC50 [2] was 20 µg/mL (≈ 77.4 µM) and the IC50 [3] was 2.7 µg/mL (≈ 10.5 µM).
